“And” between values parts separate entries of the source, which are not always exact repeats. Equal values may be shown once.
Columns and labels:
Assay type in all cases: toxicity, cell-based
Fibroblast = assay: Incucyte cell viability with human fibroblast; settings: 10 µM, compound concentration 10 uM
U2OS = assay: Incucyte cell viability with U2OS; settings: human, 10 µM, compound concentration 10 uM
HEK-293T = assay: Incucyte cell viability with HEK293T; settings: human, 10 µM, compound concentration 10 uM
Note: unitless GR value; below 1 slowed growth and below 0 cell loss.

| Compound | Growth Rate (Fibroblast; 12 h, replicate number 1) | Growth Rate (Fibroblast; 12 h, replicate number 2) | Growth Rate (Fibroblast; 18 h, replicate number 1) | Growth Rate (Fibroblast; 24 h, replicate number 1) | Growth Rate (U2OS; 0 h, replicate number 2) | Growth Rate (U2OS; 6 h, replicate number 1) | Growth Rate (HEK-293T; 0 h, replicate number 1) | Growth Rate (Fibroblast; 0 h, replicate number 1) | Growth Rate (U2OS; 12 h, replicate number 1) | Growth Rate (U2OS; 12 h, replicate number 2) | Growth Rate (U2OS; 24 h, replicate number 2) | Growth Rate (HEK-293T; 6 h, replicate number 2) | Growth Rate (HEK-293T; 12 h, replicate number 2) | Growth Rate (HEK-293T; 18 h, replicate number 2) | Growth Rate (HEK-293T; 24 h, replicate number 2) | Growth Rate (Fibroblast; 18 h, replicate number 2) | Growth Rate (Fibroblast; 24 h, replicate number 2) | Growth Rate (U2OS; 24 h, replicate number 1) | Growth Rate (HEK-293T; 18 h, replicate number 1) | Growth Rate (HEK-293T; 24 h, replicate number 1) | further results |
| --- | --- | --- | --- | --- | --- | --- | --- | --- | --- | --- | --- | --- | --- | --- | --- | --- | --- | --- | --- | --- | --- |
| CCCN1CCC(C#N)(NC(=O)[C@H](CC(C)(C)C)NC(=O)N2CCOCC2)CC1 | 0.82 | 0.45 | 0.88 | 0.83 | 0.82 | 0.96 | 0.04 | – | – | – | – | – | – | – | – | – | – | – | – | – | Growth Rate (Fibroblast; 0 h, replicate number 2): -0.89; Growth Rate (Fibroblast; 6 h, replicate number 1): 0.97 |
| NC(=O)c1sc2nc(N3CCC(NC[C@H](O)c4ccccn4)CC3)cc(C(F)(F)F)c2c1N | 0.88 | – | – | – | 0.65 | – | -0.64 | 0.86 | 0.93 | 0.54 | -0.15 | – | – | – | – | – | – | – | – | – | Growth Rate (Fibroblast; 0 h, replicate number 2): 0.11; Growth Rate (U2OS; 0 h, replicate number 1): 0.49; Growth Rate (U2OS; 6 h, replicate number 2): -0.12; Growth Rate (U2OS; 18 h, replicate number 2): 0.69 |
| CCCCCCCN(CCc1ccc(SC(C)(C)C(=O)O)cc1)C(=O)Nc1ccc(F)cc1F [GSK-9578] | 0.69 | 0.91 | 0.7 | 0.88 | – | 0 | -0.27 | 0.58 | 0.86 | – | – | 0.66 | 0.73 | 0.5 | 0.55 | – | – | – | – | – | Growth Rate (Fibroblast; 6 h, replicate number 1): 0.88; Growth Rate (Fibroblast; 6 h, replicate number 2): 0.55; Growth Rate (HEK-293T; 0 h, replicate number 2): -0.91 |
| CC(C)c1ccc(CC(=O)N[C@H](C)c2ccc(OCC(F)(F)F)cn2)cc1 [SUVECALTAMIDE] | – | 0.94 | 0.11 | – | 0.67 | -0.32 | – | -0.55 | 0.59 | 0.89 | 0.9 | – | 0.87 | 0.95 | 0.8 | 0.84 | 0.74 | 0.78 | – | – | Growth Rate (Fibroblast; 6 h, replicate number 2): -1; Growth Rate (U2OS; 6 h, replicate number 2): 0.56; Growth Rate (U2OS; 18 h, replicate number 1): 0.76; Growth Rate (U2OS; 18 h, replicate number 2): 0.86; Growth Rate (HEK-293T; 0 h, replicate number 2): 0.85; Growth Rate (HEK-293T; 6 h, replicate number 1): 0.16 |
| Cc1ccc2c(NS(=O)(=O)c3ccccc3Cl)cccc2c1Oc1ncccc1-c1ccnc(N[C@H]2CCCNC2)n1.Cl | 0.21 | 0.45 | 0.34 | 0.3 | 0.32 | 0.4 | – | -1 | 0.68 | 0.62 | 0.58 | – | 0.52 | 0.6 | 0.55 | 0.38 | 0.49 | 0.55 | 0.5 | 0.48 | Growth Rate (Fibroblast; 6 h, replicate number 1): 0.69; Growth Rate (U2OS; 0 h, replicate number 1): 0.22; Growth Rate (U2OS; 6 h, replicate number 2): 0.75; Growth Rate (U2OS; 18 h, replicate number 1): 0.69; Growth Rate (U2OS; 18 h, replicate number 2): 0.57; Growth Rate (HEK-293T; 6 h, replicate number 1): 0.95; Growth Rate (HEK-293T; 12 h, replicate number 1): 0.33 |
| CC/C(=C(\c1ccc(O)cc1)c1ccc(OCCN(C)C)cc1)c1ccccc1 [AFIMOXIFENE] | – | 0.3 | – | – | -0.96 | – | – | 0.22 | – | – | – | -0.67 | -0.46 | -0.33 | -0.26 | 0.13 | 0.18 | 0.9 | -0.68 | -0.63 | Growth Rate (Fibroblast; 6 h, replicate number 1): -0.74; Growth Rate (Fibroblast; 6 h, replicate number 2): 0.4; Growth Rate (HEK-293T; 6 h, replicate number 1): -0.92; Growth Rate (HEK-293T; 12 h, replicate number 1): -0.87 |
| Cn1cncc1-c1cn(-c2cccc(C(=O)Nc3cccc(C(F)(F)F)c3)c2)nn1 | 0.87 | 0.77 | 0.87 | 0.48 | 0.55 | 0.83 | – | – | – | 0.86 | – | -0.41 | 0.03 | 0.14 | 0.3 | 0.64 | 0.87 | 0.95 | 0.06 | 0.24 | Growth Rate (Fibroblast; 6 h, replicate number 2): 0.53; Growth Rate (U2OS; 18 h, replicate number 2): 0.89; Growth Rate (HEK-293T; 6 h, replicate number 1): -0.32; Growth Rate (HEK-293T; 12 h, replicate number 1): -0.13 |
| C[S+](C)[O-] [DIMETHYL SULFOXIDE] | – | 0.83 | 0.87 | – | 0.1 | 0.89 | 0.12 | – | – | 0.44 | 0.44 | 0.48 | 0.78 | 0.83 | 0.69 | – | – | – | 0.88 | 0.9 | Growth Rate (Fibroblast; 6 h, replicate number 1): 0.99; Growth Rate (Fibroblast; 6 h, replicate number 2): 0.8; Growth Rate (U2OS; 6 h, replicate number 2): 0.27; Growth Rate (U2OS; 18 h, replicate number 2): 0.5; Growth Rate (HEK-293T; 0 h, replicate number 2): 0.07; Growth Rate (HEK-293T; 12 h, replicate number 1): 0.83 |
| COc1ccc(-c2csc(NC(=O)[C@H]3CCCCN3S(=O)(=O)c3ccc(C)cc3)n2)cc1 | 0.31 | – | – | 0.84 | -0.9 | 0.92 | – | -1 and -0.88 | 0.99 | – | – | 0.07 and 0.12 | 0.37 | 0.3 and 0.38 | 0.41 and 0.4 | 0.57 | 0.7 | 0.87 and 0.98 | 0.35 and 0.26 | 0.37 and 0.33 | Growth Rate (Fibroblast; 6 h, replicate number 1): 0.02; Growth Rate (U2OS; 0 h, replicate number 1): 0.22; Growth Rate (U2OS; 6 h, replicate number 2): 0.97 |
| Cn1nc(C(=O)NCc2ccc(C(=O)O)cc2)cc1-c1ccc2[nH]ccc2c1 [BI 4395] | – | – | – | – | 0.14 | 0.66 | -0.1 | – | – | 0.96 | 0.9 | 0.57 | 0.63 | 0.85 | 0.56 | – | – | – | – | – | Growth Rate (Fibroblast; 0 h, replicate number 2): -0.67; Growth Rate (U2OS; 6 h, replicate number 2): 0.99; Growth Rate (HEK-293T; 0 h, replicate number 2): 0.58 |
| O=C(O)[C@]1(Cc2cccc(Nc3nccs3)n2)CC[C@@H](Oc2cccc(Cl)c2F)CC1 [MK-5108] | 0.18 | 0.85 | 0.17 | 0.32 | – | 0.98 | 0.43 | – | 0.56 | 0.14 | 0.47 | 0.73 | 0.16 | 0.35 | 0.61 | 0.26 | 0.2 | 0.37 | 0.47 | 0.63 | Growth Rate (Fibroblast; 0 h, replicate number 2): -1; Growth Rate (U2OS; 6 h, replicate number 2): 0.59; Growth Rate (U2OS; 18 h, replicate number 1): 0.21; Growth Rate (U2OS; 18 h, replicate number 2): 0.25; Growth Rate (HEK-293T; 6 h, replicate number 1): 0.9; Growth Rate (HEK-293T; 12 h, replicate number 1): 0.39 |
| CCc1cc2c(cc1-c1cccc(S(=O)(=O)F)c1)C(C)(C)c1[nH]c3cc(C#N)ccc3c1C2=O | -0.96 | – | -0.55 | 0.61 | -0.59 | 0.58 | 0.33 | -0.25 | 0.52 | 0.66 | 0.77 | -0.05 | 0.78 | 0.95 | – | 0.89 | 0.9 | 0.66 | 0.83 | 0.69 | Growth Rate (Fibroblast; 6 h, replicate number 2): 0.75; Growth Rate (U2OS; 0 h, replicate number 1): -1; Growth Rate (U2OS; 18 h, replicate number 1): 0.76; Growth Rate (HEK-293T; 0 h, replicate number 2): 0.37; Growth Rate (HEK-293T; 6 h, replicate number 1): -0.16; Growth Rate (HEK-293T; 12 h, replicate number 1): 0.48 |
| CN[C@@H](C)C/C=C/c1cncc(OC(C)C)c1 [ISPRONICLINE] | -0.29 | 0.98 | 0.22 | 0.97 | 0.2 | 0.65 | 0.9 | -0.27 | 0.82 | – | – | – | – | – | 0.96 | 0.72 | 0.87 | 0.83 | 0.32 | 0.28 | Growth Rate (Fibroblast; 0 h, replicate number 2): -0.46; Growth Rate (Fibroblast; 6 h, replicate number 2): 0.53; Growth Rate (U2OS; 0 h, replicate number 1): -0.66; Growth Rate (U2OS; 18 h, replicate number 1): 0.83; Growth Rate (HEK-293T; 0 h, replicate number 2): 0.86; Growth Rate (HEK-293T; 6 h, replicate number 1): 0.31; Growth Rate (HEK-293T; 12 h, replicate number 1): 0.02 |
| Cn1c(SCc2ccc(C(C)(C)C)cc2)nc(N)cc1=O | – | – | – | – | -0.65 | 0.7 | 0.71 | 0.97 | 0.86 | 0.66 | 0.68 | -0.24 | 0.05 | 0.19 | 0.23 | – | – | 0.78 | 0.15 | 0.2 | Growth Rate (Fibroblast; 0 h, replicate number 2): -1; Growth Rate (Fibroblast; 6 h, replicate number 1): -0.69; Growth Rate (U2OS; 18 h, replicate number 1): 0.62; Growth Rate (U2OS; 18 h, replicate number 2): 0.71; Growth Rate (HEK-293T; 6 h, replicate number 1): -0.1; Growth Rate (HEK-293T; 12 h, replicate number 1): -0.03 |

— ChEMBL document CHEMBL5303304, “EUbOPEN Chemogenomics Library - IncuCyte” (2023)
